Measured values as given in ChEMBL document CHEMBL1133293, “Synthesis of a water-soluble prodrug of entacapone” (Bioorg Med Chem Lett, 2000).
Values after ≈ are worked out from the molar mass of the structure shown.

Legend:
[1] = Half life period in rabbit liver homogenate; format: ADME, tissue-based, Oryctolagus cuniculus
[2] = Solubility at pH 7.4; format: physicochemical; conditions: buffer
[3] = Half life period t pH 7.4 at 37 degree Centigrade; format: ADME
[4] = Solubility at pH 1.2; format: physicochemical; conditions: buffer

half-life [1] [min] | solubility [2] [mg/mL] | half-life [3] [days] | solubility [4] [mg/mL] | Compound
58 |  |  |  | CCN(CC)C(=O)C(C#N)=Cc1cc(O)c(O)c([N+](=O)[O-])c1
 | 30 | 92.8 | 30 | CCN(CC)C(=O)/C(C#N)=C/c1cc(OP(=O)([O-])[O-])c([O-])c([N+](=O)[O-])c1.[Na+].[Na+].[Na+]
58 | 1.75 (≈ 5730 µM) |  | 0.017 (≈ 55.7 µM) | CCN(CC)C(=O)/C(C#N)=C/c1cc(O)c(O)c([N+](=O)[O-])c1 [ENTACAPONE]
